Measured values published in ChEMBL document CHEMBL1135617, “Dicarboxylic acid bis(L-prolyl-pyrrolidine) amides as prolyl oligopeptidase inhibitors” (J Med Chem, 2002).
pIC50: −log10 of the molar value. One block for each compound: values may come before it.

Legend:
Prolyl endopeptidase [1] = target: T1, Prolyl endopeptidase (Sus scrofa, UniProt P23687); experiment: In vitro inhibitory activity against prolyl oligopeptidase (POP) from pig brain; value ranges from (44-110)
Prolyl endopeptidase [2] = target: T1, Prolyl endopeptidase; experiment: In vitro inhibitory activity against prolyl oligopeptidase (POP) from pig brain; value ranges from (38-110)
Prolyl endopeptidase [3] = target: T1, Prolyl endopeptidase; experiment: In vitro inhibitory activity against prolyl oligopeptidase (POP) from pig brain; value ranges from (7800-54000)
Prolyl endopeptidase [4] = target: T1, Prolyl endopeptidase
Prolyl endopeptidase [5] = target: T1, Prolyl endopeptidase; experiment: In vitro inhibitory activity against prolyl oligopeptidase (POP) from pig brain; value ranges from (72-92)
Prolyl endopeptidase [6] = target: T1, Prolyl endopeptidase; experiment: In vitro inhibitory activity against prolyl oligopeptidase (POP) from pig brain; value ranges from (59 - 100)

T1 sequence (P23687 whole entry): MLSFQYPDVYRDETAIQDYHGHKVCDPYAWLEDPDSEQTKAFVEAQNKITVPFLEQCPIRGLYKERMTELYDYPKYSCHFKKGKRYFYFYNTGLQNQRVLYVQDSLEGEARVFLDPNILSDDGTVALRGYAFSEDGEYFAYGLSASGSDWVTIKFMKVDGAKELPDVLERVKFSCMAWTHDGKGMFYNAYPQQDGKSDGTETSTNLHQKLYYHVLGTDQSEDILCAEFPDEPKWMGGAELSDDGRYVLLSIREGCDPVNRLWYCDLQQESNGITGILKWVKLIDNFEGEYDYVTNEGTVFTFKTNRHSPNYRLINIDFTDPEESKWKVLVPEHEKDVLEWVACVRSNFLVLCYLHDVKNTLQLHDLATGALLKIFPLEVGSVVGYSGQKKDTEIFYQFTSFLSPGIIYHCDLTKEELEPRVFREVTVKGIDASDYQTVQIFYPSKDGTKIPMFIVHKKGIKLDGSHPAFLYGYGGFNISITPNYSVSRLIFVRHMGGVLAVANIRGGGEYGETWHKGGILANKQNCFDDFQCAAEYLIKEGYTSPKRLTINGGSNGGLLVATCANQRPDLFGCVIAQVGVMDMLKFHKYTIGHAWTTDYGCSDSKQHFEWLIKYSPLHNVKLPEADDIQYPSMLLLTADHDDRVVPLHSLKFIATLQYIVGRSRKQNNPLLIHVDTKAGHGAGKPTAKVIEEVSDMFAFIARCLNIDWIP

- pIC50 (Prolyl endopeptidase [1]): 7.17
SMILES: O=C(C1CCCN1C(=O)CCCCC(=O)N1CCC[C@H]1C(=O)N1CCCC1)N1CCCC1 (stereo partly specified)

- pIC50 (Prolyl endopeptidase [2]): 7.18
SMILES: O=C([C@@H]1CCCN1C(=O)c1ccccc1)N1CCCC1

- pIC50 (Prolyl endopeptidase [3]): 4.68
SMILES: O=C(C1CCCN1C(=O)c1ccccc1C(=O)N1CCC[C@H]1C(=O)N1CCCC1)N1CCCC1 (stereo partly specified)

- pIC50 (Prolyl endopeptidase [4]): 9.41
SMILES: O=C(CO)[C@@H]1CCCN1C(=O)[C@@H]1CCCN1C(=O)c1cccc(C(=O)N2CCCC2C(=O)N2CCCC2)c1 (stereo partly specified)

- pIC50 (Prolyl endopeptidase [5]): 7.09
SMILES: O=C(C1CCCN1C(=O)c1ccc(C(=O)N2CCC[C@H]2C(=O)N2CCCC2)cc1)N1CCCC1 (stereo partly specified)

- pIC50 (Prolyl endopeptidase [6]): 7.11
SMILES: O=C(C1CCCN1C(=O)CCC(=O)N1CCC[C@H]1C(=O)N1CCCC1)N1CCCC1 (stereo partly specified)
